Data reported in patent publication US10273226B2, “Pyrazolyl-heteroarylamides as pesticides” (Bayer Animal Health GmbH, priority 2014, dated 2019).

These compounds were tested on Ctenocephalides felis (assay: Ctenocephalides felis in vitro contact test with adult cat fleas). Settings: application rate 5 μg/cm^2 (500 g/ha); after 48 h; fleas dead or moribund.
Format: in vivo
Summary of the method: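 Test tubes were coated with 250 μl acetone solution of compound, giving 5 μg/cm^2 at 900 ppm, then dried and stocked with 5-10 adult cat fleas. After 48 h at room temperature and ambient humidity, dead or moribund fleas were counted; efficacy given as % (100% = all dead or moribund).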

| SMILES | efficacy [%] |
| --- | --- |
| Cn1nc(C(F)(F)C(F)(F)F)c(C(F)(F)F)c1-n1cc(-c2ccc(F)c(NC(=O)c3cncc(F)c3)c2)cn1 [Example 1-086] | 100 |
| Cc1ccc(C(=O)Nc2cc(-c3cnn(-c4c(C(F)(F)F)c(C(F)(F)C(F)(F)F)nn4C)c3)ccc2F)cc1 [Example 1-060] | 80 |
| Cn1nc(C(F)(F)C(F)(F)F)c(C(F)(F)F)c1-n1cc(-c2ccc(F)c(NC(=O)c3ncccn3)c2)cn1 [Example 1-036] | 100 |
| Cn1nc(C(F)(F)C(F)(F)F)c(C(F)(F)F)c1-n1cc(-c2cccc(NC(=O)c3ccsc3)c2)cn1 [Example 1-016] | 100 |

What follows are compounds tested on Rhipicephalus sanguineus (assay: Rhipicephalus sanguineus in vitro contact test with adult brown dog ticks). Settings: application rate 5 μg/cm^2 (500 g/ha); after 48 h; ticks dead or moribund.
Format: in vivo
Summary of the method: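 Test tubes (25 ml) were coated by dissolving active ingredient in acetone p.a., diluting to the required concentration, and spreading 250 μl over the inner walls and base on an orbital shaker at 30 rpm for 2 h. Once dry, 5-10 adult Rhipicephalus sanguineus were added, and tubes were capped with perforated lids and kept horizontal in darkness at room temperature. At 48 h, ticks were knocked down and heated at 45-50° C. for up to 5 min. Those unable to climb away were counted dead or moribund, and efficacy ran from 0% to 100%.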

| SMILES | efficacy [%] |
| --- | --- |
| Cn1nc(C(F)(F)C(F)(F)F)c(C(F)(F)F)c1-n1cc(-c2ccc(F)c(NC(=O)c3cncc(F)c3)c2)cn1 [Example 1-086] | 100 |
| Cc1ccc(C(=O)Nc2cc(-c3cnn(-c4c(C(F)(F)F)c(C(F)(F)C(F)(F)F)nn4C)c3)ccc2F)cc1 [Example 1-060] | 100 |
| Cn1nc(C(F)(F)C(F)(F)F)c(C(F)(F)F)c1-n1cc(-c2ccc(F)c(NC(=O)c3ncccn3)c2)cn1 [Example 1-036] | 100 |
| Cn1nc(C(F)(F)C(F)(F)F)c(C(F)(F)F)c1-n1cc(-c2cccc(NC(=O)c3ccsc3)c2)cn1 [Example 1-016] | 100 |

These compounds were tested on Boophilus microplus Parkhurst strain, SP-resistant (assay: Boophilus microplus dip test). Settings: application rate 100 ppm, assessed after 7 days.
Format: in vivo
Procedure: Boophilus microplus—Dip Test
Test animals: cattle ticks (Boophilus microplus) Parkhurst strain, SP-resistant
(§1) Solvent: dimethyl sulphoxide
10 mg of active ingredient are dissolved in 0.5 ml of dimethyl sulphoxide. For the purpose of producing a suitable formulation, the active ingredient solution is diluted with water to the concentration desired in each case.
This active ingredient formulation is pipetted into tubes. 8-10 adult engorged female cattle ticks (Boophilus microplus) are transferred into a further tube with holes. The tube is immersed into the active ingredient formulation, and all the ticks are completely wetted. After the liquid has run out, the ticks are transferred on filter discs into plastic dishes and stored in a climate-controlled room.
Efficacy is assessed after 7 days by laying of fertile eggs. Eggs which are not visibly fertile are stored in a climate-controlled cabinet until the larvae hatch after about 42 days. An efficacy of 100% means that none of the ticks has laid any fertile eggs; 0% means that all the eggs are fertile.

| SMILES | efficacy (laying of fertile eggs) [%] |
| --- | --- |
| Cc1ccc(C(=O)Nc2cc(-c3cnn(-c4c(C(F)(F)F)c(C(F)(F)C(F)(F)F)nn4C)c3)ccc2F)cc1 [Example 1-060] | 100 |

The compounds below were run on Boophilus microplus (assay: Boophilus microplus injection test). Settings: application rate 20 μg/animal; injection into abdomen; assessed after 7 days.
Format: in vivo
Summary of the method: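 Engorged adult female ticks, five per dose, were injected in the abdomen with 1 μl of active ingredient diluted in dimethyl sulphoxide. Animals were kept in dishes under climate control, and egg fertility was assessed after 7 days.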

| SMILES | efficacy (laying of fertile eggs) [%] |
| --- | --- |
| Cn1nc(C(F)(F)C(F)(F)F)c(C(F)(F)F)c1-n1cc(-c2ccc(F)c(NC(=O)c3cncc(F)c3)c2)cn1 [Example 1-086] | 100 |
| Cc1ccc(C(=O)Nc2cc(-c3cnn(-c4c(C(F)(F)F)c(C(F)(F)C(F)(F)F)nn4C)c3)ccc2F)cc1 [Example 1-060] | 100 |
| Cn1nc(C(F)(F)C(F)(F)F)c(C(F)(F)F)c1-n1cc(-c2ccc(F)c(NC(=O)c3ncccn3)c2)cn1 [Example 1-036] | 100 |
| Cn1nc(C(F)(F)C(F)(F)F)c(C(F)(F)F)c1-n1cc(-c2cccc(NC(=O)c3ccsc3)c2)cn1 [Example 1-016] | 100 |

What follows are compounds tested on Ctenocephalides felis (assay: Ctenocephalides felis oral test). Settings: application rate 100 ppm in citrated cattle blood; after 2 days.
Format: in vivo
Summary of the method: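 About 20 unfed adult cat fleas fed through a parafilm membrane on citrated cattle blood containing compound, dosed from a DMSO stock. Kill in % scored after 2 days; 100% means all fleas dead.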

| SMILES | efficacy (kill in %) [%] |
| --- | --- |
| Cn1nc(C(F)(F)C(F)(F)F)c(C(F)(F)F)c1-n1cc(-c2ccc(F)c(NC(=O)c3cncc(F)c3)c2)cn1 [Example 1-086] | 100 |
| Cc1ccc(C(=O)Nc2cc(-c3cnn(-c4c(C(F)(F)F)c(C(F)(F)C(F)(F)F)nn4C)c3)ccc2F)cc1 [Example 1-060] | 100 |
| Cn1nc(C(F)(F)C(F)(F)F)c(C(F)(F)F)c1-n1cc(-c2ccc(F)c(NC(=O)c3ncccn3)c2)cn1 [Example 1-036] | 100 |
| Cn1nc(C(F)(F)C(F)(F)F)c(C(F)(F)F)c1-n1cc(-c2cccc(NC(=O)c3ccsc3)c2)cn1 [Example 1-016] | 100 |

Each compound was assayed on Lucilia cuprina (assay: Lucilia cuprina test). Settings: application rate 100 ppm; L1 larvae; after 2 days.
Format: in vivo
Summary of the method: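 About 20 L1 larvae placed in vessels with minced horsemeat treated with compound (DMSO concentrate diluted in water) at the desired concentration. Kill (%) scored after 2 days; 100% means all larvae dead, 0% none.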

| SMILES | efficacy (kill in %) [%] |
| --- | --- |
| Cn1nc(C(F)(F)C(F)(F)F)c(C(F)(F)F)c1-n1cc(-c2ccc(F)c(NC(=O)c3cncc(F)c3)c2)cn1 [Example 1-086] | 100 |
| Cc1ccc(C(=O)Nc2cc(-c3cnn(-c4c(C(F)(F)F)c(C(F)(F)C(F)(F)F)nn4C)c3)ccc2F)cc1 [Example 1-060] | 100 |
| Cn1nc(C(F)(F)C(F)(F)F)c(C(F)(F)F)c1-n1cc(-c2ccc(F)c(NC(=O)c3ncccn3)c2)cn1 [Example 1-036] | 100 |
| Cn1nc(C(F)(F)C(F)(F)F)c(C(F)(F)F)c1-n1cc(-c2cccc(NC(=O)c3ccsc3)c2)cn1 [Example 1-016] | 100 |

What follows are compounds tested on Musca domestica (assay: Musca domestica test). Settings: application rate 100 ppm; adult houseflies; after 2 days.
Format: in vivo
Procedure: as §1
To produce an appropriate active ingredient formulation, 10 mg of active ingredient are mixed with 0.5 ml of dimethyl sulphoxide, and the concentrate is diluted with water to the desired concentration.
Vessels containing a sponge treated with sugar solution and the active ingredient formulation of the desired concentration are populated with 10 adult houseflies (Musca domestica).
After 2 days, the kill in % is determined. 100% means that all of the flies have been killed; 0% means that none of the flies have been killed.

| SMILES | efficacy (kill in %) [%] |
| --- | --- |
| Cn1nc(C(F)(F)C(F)(F)F)c(C(F)(F)F)c1-n1cc(-c2ccc(F)c(NC(=O)c3cncc(F)c3)c2)cn1 [Example 1-086] | 100 |
| Cn1nc(C(F)(F)C(F)(F)F)c(C(F)(F)F)c1-n1cc(-c2ccc(F)c(NC(=O)c3ncccn3)c2)cn1 [Example 1-036] | 100 |

The compounds below were run on Myzus persicae (assay: Myzus persicae spray test). Settings: application rate 100 g/ha; after 6 days.
Format: in vivo
Procedure: Myzus persicae—Spray Test
To produce an appropriate active ingredient formulation, 1 part by weight of active ingredient is dissolved using the specified parts by weight of solvent and made up with water containing an emulsifier concentration of 1000 ppm until the desired concentration is attained. To produce further test concentrations, the preparation is diluted with emulsifier-containing water.
Discs of Chinese cabbage leaves (Brassica pekinensis) infested by all stages of the green peach aphid (Myzus persicae) are sprayed with an active ingredient formulation of the desired concentration.
After 6 days, efficacy in % is determined. 100% means that all the aphids have been killed; 0% means that none of the aphids have been killed.

| SMILES | efficacy [%] |
| --- | --- |
| Cn1nc(C(F)(F)C(F)(F)F)c(C(F)(F)F)c1-n1cc(-c2ccc(F)c(NC(=O)c3cncc(F)c3)c2)cn1 [Example 1-086] | 100 |
| Cn1nc(C(F)(F)C(F)(F)F)c(C(F)(F)F)c1-n1cc(-c2ccc(F)c(NC(=O)c3ncccn3)c2)cn1 [Example 1-036] | 100 |

Same assay, conditions: application rate 500 g/ha; after 6 days

| SMILES | efficacy [%] |
| --- | --- |
| Cn1nc(C(F)(F)C(F)(F)F)c(C(F)(F)F)c1-n1cc(-c2cccc(NC(=O)c3ccsc3)c2)cn1 [Example 1-016] | 90 |

These compounds were tested on Phaedon cochleariae (assay: Phaedon cochleariae spray test). Settings: application rate 100 g/ha; larvae; after 7 days.
Format: in vivo
Summary of the method: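 Chinese cabbage leaf discs were sprayed with the compound formulated in water containing 1000 ppm emulsifier. After drying, they were infested with mustard beetle larvae. Efficacy was scored as % larvae killed after 7 days (100% = all dead, 0% = none).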

| SMILES | efficacy [%] |
| --- | --- |
| Cn1nc(C(F)(F)C(F)(F)F)c(C(F)(F)F)c1-n1cc(-c2ccc(F)c(NC(=O)c3cncc(F)c3)c2)cn1 [Example 1-086] | 100 |
| Cc1ccc(C(=O)Nc2cc(-c3cnn(-c4c(C(F)(F)F)c(C(F)(F)C(F)(F)F)nn4C)c3)ccc2F)cc1 [Example 1-060] | 100 |
| Cn1nc(C(F)(F)C(F)(F)F)c(C(F)(F)F)c1-n1cc(-c2ccc(F)c(NC(=O)c3ncccn3)c2)cn1 [Example 1-036] | 100 |

Same assay, conditions: application rate 500 g/ha; larvae; after 7 days

| SMILES | efficacy [%] |
| --- | --- |
| Cn1nc(C(F)(F)C(F)(F)F)c(C(F)(F)F)c1-n1cc(-c2cccc(NC(=O)c3ccsc3)c2)cn1 [Example 1-016] | 100 |

What follows are compounds tested on Spodoptera frugiperda (assay: Spodoptera frugiperda spray test). Settings: application rate 100 g/ha; caterpillars; after 7 days.
Format: in vivo
Summary of the method: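 Maize leaf discs were sprayed with compound formulated in solvent plus water containing 1000 ppm emulsifier, dried, then infested with Spodoptera frugiperda caterpillars. Efficacy in % mortality was scored after 7 days (100% all killed, 0% none).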

| SMILES | efficacy [%] |
| --- | --- |
| Cn1nc(C(F)(F)C(F)(F)F)c(C(F)(F)F)c1-n1cc(-c2ccc(F)c(NC(=O)c3cncc(F)c3)c2)cn1 [Example 1-086] | 100 |
| Cc1ccc(C(=O)Nc2cc(-c3cnn(-c4c(C(F)(F)F)c(C(F)(F)C(F)(F)F)nn4C)c3)ccc2F)cc1 [Example 1-060] | 83 |
| Cn1nc(C(F)(F)C(F)(F)F)c(C(F)(F)F)c1-n1cc(-c2ccc(F)c(NC(=O)c3ncccn3)c2)cn1 [Example 1-036] | 100 |

Same assay, conditions: application rate 500 g/ha; caterpillars; after 7 days

| SMILES | efficacy [%] |
| --- | --- |
| Cn1nc(C(F)(F)C(F)(F)F)c(C(F)(F)F)c1-n1cc(-c2cccc(NC(=O)c3ccsc3)c2)cn1 [Example 1-016] | 100 |

The compounds below were run on Tetranychus urticae (assay: Tetranychus urticae spray test, OP-resistant). Settings: application rate 100 g/ha; after 6 days.
Format: in vivo
Summary of the method: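 Bean leaf discs (Phaseolus vulgaris) carrying all stages of OP-resistant mites are sprayed with compound formulated in solvent and emulsifier-containing water. Efficacy (% mites killed) is scored after 6 days.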

| SMILES | efficacy [%] |
| --- | --- |
| Cn1nc(C(F)(F)C(F)(F)F)c(C(F)(F)F)c1-n1cc(-c2ccc(F)c(NC(=O)c3cncc(F)c3)c2)cn1 [Example 1-086] | 90 |
| Cc1ccc(C(=O)Nc2cc(-c3cnn(-c4c(C(F)(F)F)c(C(F)(F)C(F)(F)F)nn4C)c3)ccc2F)cc1 [Example 1-060] | 100 |

Same assay, conditions: application rate 500 g/ha; after 6 days

| SMILES | efficacy [%] |
| --- | --- |
| Cn1nc(C(F)(F)C(F)(F)F)c(C(F)(F)F)c1-n1cc(-c2cccc(NC(=O)c3ccsc3)c2)cn1 [Example 1-016] | 100 |
